This passage reports Ki results from patent US20200339548A1, “PYRIMIDINE DERIVATIVES AND THEIR USE FOR THE TREATMENT OF CANCER” (Adorx Therapeutics Limited, priority 2017, published 2020).

One test addresses T1, Adenosine A2a receptor (Homo sapiens, UniProt P29274).
T1 construct: expressed in transfected cells; host or cells: CHO cell membranes
Put plainly: Adenosine receptor TR-FRET binding assay, A2a. The note with it: displacement of 100 nM CA200645, CHO cell membranes. On the procedure: (§1) All FRET binding experiments were conducted at room temperature in white 384-well plates, in assay binding buffer containing 1× LabMed (Cisbio, France), 100 μg/mL saponin, 1% DMSO and 0.02% pluronic acid. Binding of the fluorescently labelled Adenosine receptor antagonist XAC (CA200645, FRET acceptor) to terbium-labelled A1, A2a, A2b and A3 adenosine receptors (FRET donors) was detected by time-resolved FRET due to the close proximity of the donor and acceptor in a binding event. To investigate the ability of unlabelled test compounds to bind to Adenosine A1, A2a, A2b and A3 receptors, dose response curves were constructed that determined the ability of a range of concentrations to inhibit the binding of 30 nM CA200645 to the A2b receptor and 100 nM CA200645 to the A1, A2a, and A3 receptor.
(§2) Serial dilution (1:3 dilutions) of test compounds in neat DMSO and transfer of a 400 nL sample of test compound into the assay plate was carried out using the Mosquito (TTP Labtech, UK). The compound samples were incubated for 2 hours at room temperature with a fixed concentration of CA200645 defined for each receptor (see above) and CHO cell membranes containing the human Adenosine A1 (0.5 μg/well), A2a (0.3 μg/well), A2b (1 μg/well) or A3 (1 μg/well) receptor in 40 μL of assay buffer. Total and non-specific binding of CA200645 was determined in the absence and presence of 10 μM XAC, respectively.
(§3) Following 2 hours incubation, the level of CA200645 binding was detected on a Pherastar FSX (BMG Labtech, Germany) using standard TR-FRET settings. The terbium donor was excited with three laser flashes at a wavelength of 337 nm, and donor and acceptor emission was detected at 620 nm and 665 nm wavelengths, respectively. FRET ratios were obtained by multiplying the acceptor/donor ratio value by 10,000. Specific binding was determined by subtracting the non-specific binding FRET ratio from the total binding FRET ratio. Compound IC50 curves were analysed using GraphPad Prism 7.0 (GraphPad, USA) and Ki affinity values were determined from the obtained […] values using the method of Cheng and Prusoff.

The next test addresses T2, Adenosine A2b receptor (Homo sapiens, UniProt P29275).
T2 construct: expressed in transfected cells; host or cells: CHO cell membranes
T2 sequence (P29275 1-332): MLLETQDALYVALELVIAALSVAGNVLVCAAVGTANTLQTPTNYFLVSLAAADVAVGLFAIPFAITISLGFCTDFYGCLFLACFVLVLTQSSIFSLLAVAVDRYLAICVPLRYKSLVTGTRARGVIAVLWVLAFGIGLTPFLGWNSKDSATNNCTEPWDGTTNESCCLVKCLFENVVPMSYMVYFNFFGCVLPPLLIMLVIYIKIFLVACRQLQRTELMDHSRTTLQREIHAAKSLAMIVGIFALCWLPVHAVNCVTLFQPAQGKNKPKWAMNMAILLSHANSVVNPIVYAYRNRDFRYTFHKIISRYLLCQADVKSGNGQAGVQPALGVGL
Briefly: Adenosine receptor TR-FRET binding assay, A2b. The note with it: Table 9, further testing; displacement of 30 nM CA200645, CHO cell membranes. How it is done:
as §1, §2, §3

A further test concerns the target T3, Adenosine A1 receptor (Homo sapiens, UniProt P30542).
T3 construct: expressed in transfected cells; host or cells: CHO cell membranes
T3 sequence (P30542 1-326): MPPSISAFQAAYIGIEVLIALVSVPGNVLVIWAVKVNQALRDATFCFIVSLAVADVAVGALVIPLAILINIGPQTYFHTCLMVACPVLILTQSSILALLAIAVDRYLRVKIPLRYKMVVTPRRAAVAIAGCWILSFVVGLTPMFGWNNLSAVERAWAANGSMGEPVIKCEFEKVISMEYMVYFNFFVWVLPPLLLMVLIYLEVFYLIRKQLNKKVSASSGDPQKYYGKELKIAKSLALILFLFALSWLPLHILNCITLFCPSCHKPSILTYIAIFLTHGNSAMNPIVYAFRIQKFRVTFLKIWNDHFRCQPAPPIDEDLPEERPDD
Briefly: Adenosine receptor TR-FRET binding assay, A1. The note with it: Table 9, further testing; displacement of 100 nM CA200645, CHO cell membranes. How it is done: as §1, §2, §3
Background: Time-resolved FRET reads energy transfer from a long-lived donor to a nearby acceptor.

A further test addresses T4, Adenosine A3 receptor (Homo sapiens, UniProt P0DMS8).
T4 construct: expressed in transfected cells; host or cells: CHO cell membranes
T4 sequence (P0DMS8 1-318): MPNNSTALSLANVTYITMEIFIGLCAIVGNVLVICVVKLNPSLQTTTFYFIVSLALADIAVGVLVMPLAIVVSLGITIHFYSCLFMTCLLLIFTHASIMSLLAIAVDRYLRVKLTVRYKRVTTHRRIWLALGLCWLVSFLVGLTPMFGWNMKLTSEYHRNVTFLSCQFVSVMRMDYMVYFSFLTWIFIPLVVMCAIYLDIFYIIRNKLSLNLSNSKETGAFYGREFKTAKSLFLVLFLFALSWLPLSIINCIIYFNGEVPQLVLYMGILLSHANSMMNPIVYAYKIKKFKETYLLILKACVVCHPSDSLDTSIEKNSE
Put plainly: Adenosine receptor TR-FRET binding assay, A3. Conditions: Table 9, further testing; displacement of 100 nM CA200645, CHO cell membranes; read-out: A3 Ki. How it is done:
as §1, §2, §3

Counter-ions that a name gives are not always drawn.

T1 sequence (P29274 whole entry): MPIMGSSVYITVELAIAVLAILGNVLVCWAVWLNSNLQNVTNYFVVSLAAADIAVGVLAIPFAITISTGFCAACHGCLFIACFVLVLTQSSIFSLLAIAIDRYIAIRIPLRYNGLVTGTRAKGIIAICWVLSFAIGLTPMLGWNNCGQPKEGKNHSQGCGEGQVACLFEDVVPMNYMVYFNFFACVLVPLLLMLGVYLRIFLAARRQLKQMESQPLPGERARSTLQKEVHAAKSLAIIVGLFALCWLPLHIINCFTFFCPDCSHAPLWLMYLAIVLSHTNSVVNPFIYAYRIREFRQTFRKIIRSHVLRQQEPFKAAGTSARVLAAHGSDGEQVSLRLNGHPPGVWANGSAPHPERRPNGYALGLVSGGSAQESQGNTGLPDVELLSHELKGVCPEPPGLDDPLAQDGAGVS

One may read the Ki as a measure of affinity in units of concentration, obtained from inhibition or displacement. Take `Nc1nc(-c2ccco2)ncc1C(=O)NCc1ccccc1C(F)F` [Example 5.35, 4-Amino-N-[[2-(difluoromethyl)phenyl]methyl]-2-(2-furyl)pyrimidine-5-carboxamide]: the inhibitory constant (Ki) was 12 nM at Adenosine A2a receptor (Table 9, further testing); 1330 nM on Adenosine A2b receptor; 2620 nM on Adenosine A1 receptor; 2800 nM at Adenosine A3 receptor.
Turning to `Cc1cccnc1CNC(=O)c1c(N)nc(-c2ccco2)nc1OCCCN` [Example 23.5, 4-Amino-6-(3-aminopropoxy)-2-(2-furyl)-N-[(3-methyl-2-pyridyl)methyl]pyrimidine-5-carboxamide dihydrochloride], the inhibition constant Ki was found to be 23 nM on Adenosine A2a receptor (Table 9, further testing); 3060 nM on Adenosine A2b receptor; 1060 nM on Adenosine A1 receptor; 2150 nM on Adenosine A3 receptor.
The like results for `Nc1cccnc1CNC(=O)c1cnc(-c2ccco2)nc1N` [Example 5.53, 4-Amino-N-[(3-amino-2-pyridyl)methyl]-2-(2-furyl)pyrimidine-5-carboxamide] were, in that order, 11 nM, 644 nM, 6020 nM and 4630 nM.
The like results for `Cc1ccc(-c2ncc(C(=O)NCc3ncccc3C)c(N)n2)o1` [Example 3.1, 4-Amino-2-(5-methyl-2-furyl)-N-[(3-methyl-2-pyridyl)methyl]pyrimidine-5-carboxamide] were, in that order, 424 nM, 5540 nM, 995 nM and 818 nM.
As for `CCCOc1nc(-c2ccco2)nc(N)c1C(=O)NCc1ncccc1C` [Example 20.9, 4-Amino-2-(2-furyl)-N-[(3-methyl-2-pyridyl)methyl]-6-propoxy-pyrimidine-5-carboxamide], the Ki at Adenosine A2a receptor (Table 9, further testing) was 0.52 nM; on Adenosine A2b receptor it was 384 nM; at Adenosine A1 receptor, 44 nM; at Adenosine A3 receptor it was 18 nM.
As for `Cc1cccnc1CNC(=O)c1nnc(-c2ccc(F)cc2)nc1N` [Example 8, 5-Amino-3-(4-fluorophenyl)-N-[(3-methyl-2-pyridyl)methyl]-1,2,4-triazine-6-carboxamide], the Ki at Adenosine A2a receptor (Table 8, Cheng and Prusoff) stood at 51 nM; on Adenosine A2a receptor (Table 9, further testing), 51 nM; on Adenosine A2b receptor it was 1100 nM; on Adenosine A1 receptor it was 137 nM; on Adenosine A3 receptor it was 24 nM.
For the molecule `Nc1nc(-c2cccc(F)c2)ncc1C(=O)NCc1ccccc1Cl` [Example 10.5, 4-Amino-N-[(2-chlorophenyl)methyl]-2-(3-fluorophenyl)pyrimidine-5-carboxamide], the Ki amounted to 137 nM at Adenosine A2a receptor (Table 8, Cheng and Prusoff); 137 nM on Adenosine A2a receptor (Table 9, further testing); 2970 nM on Adenosine A2b receptor; 658 nM at Adenosine A1 receptor; 300 nM at Adenosine A3 receptor.
In the case of `COCC(C)Oc1nc(-c2ccco2)nc(N)c1C(=O)NCc1ncccc1C` (centres unmarked) [Example 20.12, 4-Amino-2-(2-furyl)-6-(2-methoxy-1-methyl-ethoxy)-N-[(3-methyl-2-pyridyl)methyl]pyrimidine-5-carboxamide], the Ki was determined as 0.21 nM on Adenosine A2a receptor (Table 9, further testing); 540 nM at Adenosine A2b receptor; 13 nM at Adenosine A1 receptor; 1.4 nM on Adenosine A3 receptor.
Consider `Nc1nc(-c2ccco2)ncc1C(=O)NCc1cccc(F)c1` [Example 5.13, 4-Amino-N-[(3-fluorophenyl)methyl]-2-(2-furyl)pyrimidine-5-carboxamide], for which the Ki at Adenosine A2a receptor (Table 8, Cheng and Prusoff) came out at 20 nM; at Adenosine A2a receptor (Table 9, further testing), 20 nM; on Adenosine A2b receptor, 3970 nM; on Adenosine A1 receptor, 3550 nM; at Adenosine A3 receptor, 2680 nM.
On to `Nc1nc(-c2ccco2)ncc1C(=O)NCc1ncccc1F` [Example 5.48, 4-Amino-N-[(3-fluoro-2-pyridyl)methyl]-2-(2-furyl)pyrimidine-5-carboxamide], for which the inhibition constant Ki turned out to be 23 nM on Adenosine A2a receptor (Table 9, further testing); 420 nM on Adenosine A2b receptor; 7960 nM on Adenosine A1 receptor; 3050 nM on Adenosine A3 receptor.
Regarding `Cc1cc(C)cc(CNC(=O)c2cnc(-c3ccco3)nc2N)c1` [Example 5.39, 4-Amino-N-[(3,5-dimethylphenyl)methyl]-2-(2-furyl)pyrimidine-5-carboxamide], the Ki is 21 nM at Adenosine A2a receptor (Table 9, further testing); 2130 nM at Adenosine A2b receptor; 521 nM on Adenosine A1 receptor; 753 nM on Adenosine A3 receptor.
Take `Nc1nc(-c2ccco2)ncc1C(=O)NCc1cccc(C(F)(F)F)c1` [Example 5.29, 4-Amino-2-(2-furyl)-N-[[3-(trifluoromethyl)phenyl]methyl]pyrimidine-5-carboxamide]: the Ki at Adenosine A2a receptor (Table 8, Cheng and Prusoff) came to 52 nM; on Adenosine A2a receptor (Table 9, further testing), 52 nM; at Adenosine A2b receptor, 5470 nM; on Adenosine A1 receptor, 1700 nM; on Adenosine A3 receptor it was 2460 nM.
With `Cc1cccnc1CNC(=O)c1c(N)nc(-c2ccco2)nc1-n1cccn1` [Example 19, 4-Amino-2-(2-furyl)-N-[(3-methyl-2-pyridyl)methyl]-6-pyrazol-1-yl-pyrimidine-5-carboxamide], the Ki on Adenosine A2a receptor (Table 8, Cheng and Prusoff) is 105 nM; on Adenosine A2a receptor (Table 9, further testing), 105 nM; at Adenosine A1 receptor, 871 nM; at Adenosine A3 receptor, 675 nM.
On to `Nc1nc(-c2ccco2)ncc1C(=O)NCc1ccc(F)cc1` [Example 5.14, 4-Amino-N-[(4-fluorophenyl)methyl]-2-(2-furyl)pyrimidine-5-carboxamide], for which the Ki on Adenosine A2a receptor (Table 8, Cheng and Prusoff) was 33 nM; on Adenosine A2a receptor (Table 9, further testing), 33 nM; at Adenosine A2b receptor it was 6630 nM; at Adenosine A3 receptor it was 1820 nM.
On to `Nc1nc(-c2ccco2)ncc1C(=O)NCc1cc(F)cc(C(F)(F)F)c1` [Example 5.44, 4-Amino-N-[[3-fluoro-5-(trifluoromethyl)phenyl]methyl]-2-(2-furyl)pyrimidine-5-carboxamide], for which the Ki on Adenosine A2a receptor (Table 9, further testing) amounted to 78 nM; at Adenosine A1 receptor, 364 nM; on Adenosine A3 receptor it was 1090 nM.
As to `Nc1nc(-c2ccco2)ncc1C(=O)NCc1ccc(C(F)(F)F)cc1` [Example 5.28, 4-amino-2-(2-furyl)-N-[[4-(trifluoromethyl)phenyl]methyl]pyrimidine-5-carboxamide], the Ki turned out to be 298 nM at Adenosine A2a receptor (Table 8, Cheng and Prusoff); 298 nM at Adenosine A2a receptor (Table 9, further testing); 5660 nM at Adenosine A1 receptor; 5780 nM on Adenosine A3 receptor.
`Cc1cccnc1C(C)NC(=O)c1cnc(-c2ccco2)nc1N` (centres unmarked) [Example 5.57, 4-Amino-2-(2-furyl)-N-[1-(3-methyl-2-pyridyl)ethyl]pyrimidine-5-carboxamide]: the inhibitory constant (Ki) at Adenosine A2a receptor (Table 9, further testing) was 40 nM; on Adenosine A1 receptor it was 4480 nM; at Adenosine A3 receptor it was 1230 nM.
For the molecule `Nc1nc(-c2ccco2)ncc1C(=O)NCc1cc(F)cc(F)c1` [Example 5.17, 4-Amino-N-[(3,5-difluorophenyl)methyl]-2-(2-furyl)pyrimidine-5-carboxamide], the inhibitory constant (Ki) was 24 nM on Adenosine A2a receptor (Table 8, Cheng and Prusoff); 24 nM at Adenosine A2a receptor (Table 9, further testing); 1890 nM at Adenosine A1 receptor; 3050 nM on Adenosine A3 receptor.
